Measured values as given in patent publication US11970498B2, “CDK2 inhibitors” (BLUEPRINT MEDICINES CORPORATION, priority 2021, dated 2024).

Columns and labels:
CDK2/Cyclin E = CDK2/Cyclin E (Homo sapiens, UniProt P24941); test: CDK2/Cyclin E biochemical phosphorylation assay (Caliper mobility shift); conditions: apparent IC50; 1.0 mM ATP or ATP Km; 1.25 nM enzyme; 25° C.; read-out: CDK2/cyclin E1 IC50
Procedure, shortened: (§1)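 7.5 µM 5-FAM-QSPKKG-CONH2 peptide phosphorylated by CDK2/Cyclin E (1.25 nM) or GST-CDK1/Cyclin B1 (1.5 nM) at 1.0 mM ATP or ATP Km, in HEPES pH 7.5, MgCl2, Brij-35, DTT, 1% DMSO, 25 °C to 10–20% conversion. EDTA stop; Caliper mobility-shift readout; apparent IC50 from percent activity vs log concentration.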

CDK1/Cyclin B1, GST-tag = target: T1, CDK1/Cyclin B1, GST-tag (Homo sapiens, UniProt P06493); test: CDK1/Cyclin B1 biochemical phosphorylation assay (Caliper mobility shift); conditions: apparent IC50; 1.0 mM ATP or ATP Km; 1.5 nM enzyme; 25° C.
T1 construct: GST
T1 sequence (P06493 whole entry): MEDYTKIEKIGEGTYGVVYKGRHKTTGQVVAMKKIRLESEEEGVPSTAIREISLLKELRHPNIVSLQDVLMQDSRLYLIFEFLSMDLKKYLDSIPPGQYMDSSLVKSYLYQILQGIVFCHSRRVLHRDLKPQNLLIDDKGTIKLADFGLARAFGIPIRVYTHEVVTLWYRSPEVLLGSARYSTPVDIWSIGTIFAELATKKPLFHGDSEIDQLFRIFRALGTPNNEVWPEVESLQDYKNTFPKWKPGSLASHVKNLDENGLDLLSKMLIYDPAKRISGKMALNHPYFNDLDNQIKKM
T1 sequence (P14635 whole entry partner): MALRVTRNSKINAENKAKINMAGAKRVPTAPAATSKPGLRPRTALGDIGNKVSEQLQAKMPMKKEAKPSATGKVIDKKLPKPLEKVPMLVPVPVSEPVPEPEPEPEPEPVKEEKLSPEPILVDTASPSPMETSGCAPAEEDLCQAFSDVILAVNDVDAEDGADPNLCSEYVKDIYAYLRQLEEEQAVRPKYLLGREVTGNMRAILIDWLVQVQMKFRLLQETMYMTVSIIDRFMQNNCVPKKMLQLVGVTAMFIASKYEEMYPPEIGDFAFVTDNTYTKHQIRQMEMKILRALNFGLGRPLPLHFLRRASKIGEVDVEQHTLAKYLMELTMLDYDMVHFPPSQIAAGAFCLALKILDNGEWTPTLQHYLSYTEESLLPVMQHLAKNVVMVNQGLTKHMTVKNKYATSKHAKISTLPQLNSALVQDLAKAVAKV
Procedure, shortened: as §1

SMILES	IC50 (CDK2/Cyclin E) [nM]	IC50 (CDK1/Cyclin B1, GST-tag) [nM]
C[C@@H](O)c1nn([C@@H](C)C2CCOCC2)c2nc(Nc3cc(OC(F)F)[nH]n3)cnc12 (single isomer, unassigned) [Example 181, (R)-1-(6-((5-(difluoromethoxy)-1H-pyrazol-3-yl)amino)-1-((S)-1-(tetrahydro-2H-pyran-4-yl)ethyl)-1H-pyrazolo[3,4-b]pyrazin-3-yl)ethan-1-ol or (S)-1-(6-((5-(difluoromethoxy)-1H-pyrazol-3-yl)amino)-1-((S)-1-(tetrahydro-2H-pyran-4-yl)ethyl)-1H-pyrazolo[3,4-b]pyrazin-3-yl)ethan-1-ol]	≤ 10	≥ 500
N#C[C@@]1(Cn2ncc3ncc(Nc4cc(OC(F)F)[nH]n4)nc32)CCOC1 (single isomer, unassigned) [Example 170, (R)-3-((6-((5-(difluoromethoxy)-1H-pyrazol-3-yl)amino)-1H-pyrazolo[3,4-b]pyrazin-1-yl)methyl)tetrahydrofuran-3-carbonitrile or (S)-3-((6-((5-(difluoromethoxy)-1H-pyrazol-3-yl)amino)-1H-pyrazolo[3,4-b]pyrazin-1-yl)methyl)tetrahydrofuran-3-carbonitrile]	> 100	≥ 500
C[C@@H](c1ccc(F)nc1)n1ncc2ncc(Nc3cc(OC(F)F)[nH]n3)nc21 (single isomer, unassigned) [Example 151, (S)-N-(5-(difluoromethoxy)-1H-pyrazol-3-yl)-1-(1-(6-fluoropyridin-3-yl)ethyl)-1H-pyrazolo[3,4-b]pyrazin-6-amine or (R)-N-(5-(difluoromethoxy)-1H-pyrazol-3-yl)-1-(1-(6-fluoropyridin-3-yl)ethyl)-1H-pyrazolo[3,4-b]pyrazin-6-amine]	≤ 10	≥ 500
C[C@H](c1cccnn1)n1ncc2ncc(Nc3cc(OC(F)F)[nH]n3)nc21 (single isomer, unassigned) [Example 25, (R)—N-(5-(difluoromethoxy)-1H-pyrazol-3-yl)-1-(1-(pyridazin-3-yl)ethyl)-1H-pyrazolo[3,4-b]pyrazin-6-amine or (S)—N-(5-(difluoromethoxy)-1H-pyrazol-3-yl)-1-(1-(pyridazin-3-yl)ethyl)-1H-pyrazolo[3,4-b]pyrazin-6-amine]	30 to 100	≥ 500
FC(F)Oc1cc(Nc2cnc3cnn(CC4CCOCC4)c3n2)n[nH]1 [Example 2, N-(5-(difluoromethoxy)-1H-pyrazol-3-yl)-1-((tetrahydro-2H-pyran-4-yl)methyl)-1H-pyrazolo[3,4-b]pyrazin-6-amine]	≤ 10	100 to 500
Fc1ncccc1Cn1ncc2ncc(Nc3cc(OC(F)F)[nH]n3)nc21 [Example 7, N-(5-(difluoromethoxy)-1H-pyrazol-3-yl)-1-((2-fluoropyridin-3-yl)methyl)-1H-pyrazolo[3,4-b]pyrazin-6-amine]	≤ 10	100 to 500
FC(F)Oc1cc(Nc2cnc3cnn(CC4COC4)c3n2)n[nH]1 [Example 85, N-(5-(difluoromethoxy)-1H-pyrazol-3-yl)-1-(oxetan-3-ylmethyl)-1H-pyrazolo[3,4-b]pyrazin-6-amine]	10 to 20	≥ 500
FC(F)Oc1cc(Nc2cnc3cnn(C[C@@H]4[C@@H]5COC[C@@H]54)c3n2)n[nH]1 [Example 111, 1-(((1R,5S,6r)-3-oxabicyclo[3.1.0]hexan-6-yl)methyl)-N-(5-(difluoromethoxy)-1H-pyrazol-3-yl)-1H-pyrazolo[3,4-b]pyrazin-6-amine]	≤ 10	≥ 500
[2H]C([2H])(c1cccnc1)n1ncc2ncc(Nc3cc(OC(F)F)[nH]n3)nc21 [Example 224, N-(5-(difluoromethoxy)-1H-pyrazol-3-yl)-1-(pyridin-3-ylmethyl-d2)-1H-pyrazolo[3,4-b]pyrazin-6-amine]	≤ 10	≥ 500
OC[C@@H](c1cccnc1)n1ncc2ncc(Nc3cc(OC(F)F)[nH]n3)nc21 [Example 204, (R)-2-(6-((5-(difluoromethoxy)-1H-pyrazol-3-yl)amino)-1H-pyrazolo[3,4-b]pyrazin-1-yl)-2-(pyridin-3-yl)ethan-1-ol]	20 to 30	≥ 500
FC(F)Oc1cc(Nc2cnc3cnn(CC4CC4)c3n2)n[nH]1 [Example 80, 1-(cyclopropylmethyl)-N-(5-(difluoromethoxy)-1H-pyrazol-3-yl)-1H-pyrazolo[3,4-b]pyrazin-6-amine]	≤ 10	≥ 500
FC(F)Oc1cc(Nc2cnc3cnn(C[C@H]4[C@@H]5COC[C@@H]54)c3n2)n[nH]1 [Example 81, 1-(((1R,5S,6s)-3-oxabicyclo[3.1.0]hexan-6-yl)methyl)-N-(5-(difluoromethoxy)-1H-pyrazol-3-yl)-1H-pyrazolo[3,4-b]pyrazin-6-amine]	≤ 10	≥ 500
C[C@@H](c1ccc(F)cn1)n1ncc2ncc(Nc3cc(OC(F)F)[nH]n3)nc21 [Example 48, (S)-N-(5-(difluoromethoxy)-1H-pyrazol-3-yl)-1-(1-(5-fluoropyridin-2-yl)ethyl)-1H-pyrazolo[3,4-b]pyrazin-6-amine]	≤ 10	≥ 500
FC(F)Oc1cc(Nc2cnc3cnn(CC4(C(F)(F)F)CCOCC4)c3n2)n[nH]1 [Example 121, N-(5-(difluoromethoxy)-1H-pyrazol-3-yl)-1-((4-(trifluoromethyl)tetrahydro-2H-pyran-4-yl)methyl)-1H-pyrazolo[3,4-b]pyrazin-6-amine]	30 to 100	≥ 500
FC(F)Oc1cc(Nc2cnc3cnn(Cc4nccs4)c3n2)n[nH]1 [Example 54, N-(5-(difluoromethoxy)-1H-pyrazol-3-yl)-1-(thiazol-2-ylmethyl)-1H-pyrazolo[3,4-b]pyrazin-6-amine]	30 to 100	≥ 500
C[C@@H](O)c1nn([C@@H](C)c2cccnc2)c2nc(Nc3cc(OC(F)F)[nH]n3)cnc12 (single isomer, unassigned) [Example 178, (S)-1-(6-((5-(difluoromethoxy)-1H-pyrazol-3-yl)amino)-1-((S)-1-(pyridin-3-yl)ethyl)-1H-pyrazolo[3,4-b]pyrazin-3-yl)ethan-1-ol or (R)-1-(6-((5-(difluoromethoxy)-1H-pyrazol-3-yl)amino)-1-((S)-1-(pyridin-3-yl)ethyl)-1H-pyrazolo[3,4-b]pyrazin-3-yl)ethan-1-ol]	≤ 10	≥ 500
C[C@@H](c1ccccn1)n1ncc2ncc(Nc3cc(OC(F)F)[nH]n3)nc21 [Example 4, (S)—N-(5-(difluoromethoxy)-1H-pyrazol-3-yl)-1-(1-(pyridin-2-yl)ethyl)-1H-pyrazolo[3,4-b]pyrazin-6-amine]	≤ 10	≥ 500
C[C@@H](c1cncc(F)c1)n1ncc2ncc(Nc3cc(OC(F)F)[nH]n3)nc21 (single isomer, unassigned) [Example 153, (S)-N-(5-(difluoromethoxy)-1H-pyrazol-3-yl)-1-(1-(5-fluoropyridin-3-yl)ethyl)-1H-pyrazolo[3,4-b]pyrazin-6-amine or (R)-N-(5-(difluoromethoxy)-1H-pyrazol-3-yl)-1-(1-(5-fluoropyridin-3-yl)ethyl)-1H-pyrazolo[3,4-b]pyrazin-6-amine]	10 to 20	≥ 500
FC(F)Oc1cc(Nc2cnc3cnn(CC45COCC4C5)c3n2)n[nH]1 (stereo not drawn) [Example 221, 1-(3-oxabicyclo[3.1.0]hexan-1-ylmethyl)-N-(5-(difluoromethoxy)-1H-pyrazol-3-yl)-1H-pyrazolo[3,4-b]pyrazin-6-amine]	30 to 100	≥ 500
FC(F)Oc1cc(Nc2cnc3cnn(C[C@@H]4CC4(F)F)c3n2)n[nH]1 (single isomer, unassigned) [Example 164, (R)-1-((2,2-difluorocyclopropyl)methyl)-N-(5-(difluoromethoxy)-1H-pyrazol-3-yl)-1H-pyrazolo[3,4-b]pyrazin-6-amine or (S)-1-((2,2-difluorocyclopropyl)methyl)-N-(5-(difluoromethoxy)-1H-pyrazol-3-yl)-1H-pyrazolo[3,4-b]pyrazin-6-amine]	10 to 20	≥ 500
COc1cc(Nc2cnc3cnn([C@@H](CF)C4CCOCC4)c3n2)n[nH]1 (single isomer, unassigned) [Example 195, (S)-1-(2-fluoro-1-(tetrahydro-2H-pyran-4-yl)ethyl)-N-(5-methoxy-1H-pyrazol-3-yl)-1H-pyrazolo[3,4-b]pyrazin-6-amine or (R)-1-(2-fluoro-1-(tetrahydro-2H-pyran-4-yl)ethyl)-N-(5-methoxy-1H-pyrazol-3-yl)-1H-pyrazolo[3,4-b]pyrazin-6-amine]	> 100	≥ 500
FC(F)Oc1cc(Nc2cnc3cnn(Cc4cncs4)c3n2)n[nH]1 [Example 53, N-(5-(difluoromethoxy)-1H-pyrazol-3-yl)-1-(thiazol-5-ylmethyl)-1H-pyrazolo[3,4-b]pyrazin-6-amine]	≤ 10	≥ 500
C[C@@H](c1cccnc1F)n1nc(Cl)c2ncc(Nc3cc(OC(F)F)[nH]n3)nc21 [Example 17, (S)-3-chloro-N-(5-(difluoromethoxy)-1H-pyrazol-3-yl)-1-(1-(2-fluoropyridin-3-yl)ethyl)-1H-pyrazolo[3,4-b]pyrazin-6-amine]	≤ 10	100 to 500
FC(F)Oc1cc(Nc2cnc3cnn(C[C@H]4CCCO4)c3n2)n[nH]1 [Example 113, (R)-N-(5-(difluoromethoxy)-1H-pyrazol-3-yl)-1-((tetrahydrofuran-2-yl)methyl)-1H-pyrazolo[3,4-b]pyrazin-6-amine]	30 to 100	≥ 500
